Assay results from the NIST ThermoML archive (doi:10.1021/je900525f).

Experiment: xn = mol fraction of the nth substance listed
Conditions: 101 kPa, Liquid; for viscosity: Capillary tube (Ostwald / Ubbelohde) method; for speed of sound: Pulse-echo method

N#CCc1ccccc1 [benzeneacetonitrile] + CCOC(C)=O
Conditions	mass density, 303.15 K [kg/m3]	mass density, 308.15 K [kg/m3]	mass density, 313.15 K [kg/m3]	speed of sound, 303.15 K [m/s]	speed of sound, 308.15 K [m/s]	speed of sound, 313.15 K [m/s]	viscosity, 303.15 K [mPa·s]	viscosity, 308.15 K [mPa·s]	viscosity, 313.15 K [mPa·s]
x1 = 0.0198	892.4	887.4	880.8	1125.1	1109.3	1104.3	0.396	0.376	0.357
x1 = 0.1279	910.4	905.4	899.6	1173.8	1164.8	1159.7	0.483	0.458	0.431
x1 = 0.2425	926.8	922.7	916.9	1230.8	1218.2	1209.3	0.591	0.556	0.524
x1 = 0.3589	942.3	938	933.4	1286.7	1278.4	1263.6	0.714	0.668	0.627
x1 = 0.461	955.3	950.9	946.5	1326.1	1312.5	1303.1	0.839	0.781	0.733
x1 = 0.5665	967.5	963.3	958.5	1366.7	1355.1	1344.9	0.984	0.914	0.856
x1 = 0.6978	981.5	978.1	972.4	1417.8	1410.8	1400	1.18	1.092	1.017
x1 = 0.8328	994.9	991.8	985.2	1464.3	1461.3	1446.8	1.416	1.307	1.209
x1 = 0.9745	1006.5	1002.6	998.1	1508.3	1500.5	1490	1.695	1.554	1.43
x1 = 1	1008.8	1004.1	999.5	1519.2	1512.9	1503.4	1.761	1.602	1.489

CCOC(=O)CCl [ethyl chloroethanoate] + N#CCc1ccccc1
Conditions	mass density, 303.15 K [kg/m3]	mass density, 308.15 K [kg/m3]	mass density, 313.15 K [kg/m3]	speed of sound, 303.15 K [m/s]	speed of sound, 308.15 K [m/s]	speed of sound, 313.15 K [m/s]	viscosity, 303.15 K [mPa·s]	viscosity, 308.15 K [mPa·s]	viscosity, 313.15 K [mPa·s]
x2 = 0	1139.3	1132.5	1125.9	1229.4	1212.4	1197.6	0.9692	0.8979	0.8341
x2 = 0.0205	1135.8	1129.8	1123.2	1235.7	1218.9	1204	0.9824	0.9115	0.8463
x2 = 0.1376	1119.2	1114.3	1107.6	1268.8	1254	1240.4	1.069	0.9906	0.9164
x2 = 0.2585	1102.6	1098.5	1091.7	1303.2	1291.5	1279	1.161	1.072	0.9925
x2 = 0.3793	1086.4	1083.3	1076.2	1338.7	1328.4	1316.6	1.254	1.155	1.07
x2 = 0.4843	1072.6	1069.8	1062.8	1370.5	1361.6	1348.5	1.336	1.229	1.139
x2 = 0.5875	1059.3	1056.4	1049.8	1400.6	1388.9	1381	1.419	1.302	1.207
x2 = 0.7152	1043.2	1040	1034	1438.2	1426.3	1419.9	1.523	1.394	1.292
x2 = 0.8434	1027.5	1023.7	1018.3	1476.9	1466	1457.4	1.628	1.488	1.379
x2 = 0.9764	1011.6	1007	1002.3	1516	1505.6	1495.8	1.74	1.584	1.471

CCOC(=O)CC#N [ethyl cyanoacetate] + N#CCc1ccccc1
Conditions	mass density, 303.15 K [kg/m3]	mass density, 308.15 K [kg/m3]	mass density, 313.15 K [kg/m3]	speed of sound, 303.15 K [m/s]	speed of sound, 308.15 K [m/s]	speed of sound, 313.15 K [m/s]	viscosity, 303.15 K [mPa·s]	viscosity, 308.15 K [mPa·s]	viscosity, 313.15 K [mPa·s]
x2 = 0	1051.4	1046.5	1040.8	1396.9	1384.8	1367.7	2.186	1.962	1.77
x2 = 0.0223	1050.1	–	1039.8	1399.6	–	1370.4	2.179	–	1.764
x2 = 0.0233	–	1045.6	–	–	1386.5	–	–	1.955	–
x2 = 0.1383	1044.4	1040.9	1034.8	1412.3	1397.7	1384.6	2.135	1.917	1.733
x2 = 0.2569	1038.8	1035.9	1029.9	1424.4	1410	1399.1	2.088	1.877	1.701
x2 = 0.3778	1033.4	1030.8	1025.3	1436	1423.7	1414.2	2.039	1.836	1.671
x2 = 0.4842	1028.9	1026.3	1021.1	1448	1436.3	1429.2	1.995	1.799	1.644
x2 = 0.5882	1024.6	1021.8	1016.8	1461.3	1450.4	1442	1.95	1.761	1.612
x2 = 0.7172	1019.4	1016.2	1011.4	1479.4	1468.5	1459.4	1.893	1.713	1.572
x2 = 0.8426	1014.6	1010.9	1005.8	1496.9	1487.6	1478	1.835	1.664	1.535
x2 = 0.9759	1009.7	1005.2	1000.4	1515.5	1508.7	1495.9	1.773	1.612	1.496
